Assay results reported in patent publication US7001983B1, “Antipathogenic synthetic peptides and compositions comprising them” (priority 1997, dated 2006).
Square brackets hold non-standard residues; d marks the D form. Peptide text beside a SMILES is read from it.

Columns and labels:
[1] = test system: Acinetobacter calcoaceticus Ac11; assay type: cell-based; conditions: 100% inhibition of growth after 18–20 h
[2] = test system: human red blood cells (hRBC); assay: Hemolysis of human red blood cells; assay type: cell-based; conditions: for % hemolysis at 50 μM peptide / % hemolysis at 100 μM: hRBC, 30 min at 37° C.
Experimental: (ix) Hemolysis of human red blood cells. The peptides were tested for their hemolytic activities against human red blood cells (hRBC). Fresh hRBC with EDTA were rinsed 3 times with PBS (35 mM phosphate buffer/0.15 M NaCl, pH 7.3) by centrifugation for 10 min at 800 g and resuspended in PBS. Peptides dissolved in PBS were then added to 50 μL of a solution of the stock hRBC in PBS to reach a final volume of 100 μL (final erythrocyte concentration, 5% v/v). The resulting suspension was incubated under agitation for 30 min at 37° C. The samples were then centrifuged at 800 g for 10 min. Release of hemoglobin was monitored by measuring the absorbance of the supernatant at 540 nm. Controls for zero hemolysis (blank) and 100% hemolysis consisted of hRBC suspended in PBS and Triton 1%, respectively.

[3] = test system: Escherichia coli D21; assay type: cell-based; conditions: for Minimal Inhibitory Concentration E. coli (D21): 100% inhibition of growth after 18–20 h
[4] = test system: Bacillus megaterium Bm11; assay type: cell-based; conditions: 100% inhibition of growth after 18–20 h
[5] = test system: Micrococcus Iuteus ATCC 9341; assay: Antibacterial activity (MIC), growth inhibition in LB medium; assay type: cell-based, Micrococcus luteus; conditions: 100% inhibition of growth after 18–20 h
Experimental: (viii) Antibacterial activity of the peptides. The antibacterial activity of the diastereomers was examined in sterile 96-well plates (Nunc F96 microtiter plates) in a final volume of 100 μL as follows: Aliquots (50 μl) of a suspension containing bacteria at a concentration of 10^6 Colony-Forming Units (CFU)/ml LB (Lauria broth) medium were added to 50 μL of water or 66% pooled normal human serum in PBS, containing the peptide in 2-fold serial dilutions. Growth inhibition was determined by measuring the absorbance at 492 nm with a Microplate autoreader E1309 (Bio-tek Instruments), following incubation for 18–20 h at 37° C. […] The bacteria used were: Escherichia coli D21, Pseudomonas aeruginosa ATCC 27853, Acinetobacter calcoaceticus Ac11, Salmonella typhimurium LT2, Bacillus megaterium Bm11, Micrococcus Iuteus ATCC 9341, Bacillus subtilis ATCC 6051.

[6] = test system: Pseudomonas aeruginosa ATCC 27853; conditions: for Minimal Inhibitory Concentration P. aeruginosa (ATCC 27853): 100% inhibition of growth after 18–20 h
Experimental: (viii) Antibacterial activity of the peptides.
Antibacterial activity of the mixtures was determined as described in Experimental procedures, section (xii).

[7] = test system: Bacillus subtilis ATCC 6051; assay type: cell-based; conditions: 100% inhibition of growth after 18–20 h

Structure (SMILES) | Minimal Inhibitory Concentration A. calcoaceticus (Ac11) [1] [µM] | % hemolysis at 50 μM peptide [2] [%] | Minimal Inhibitory Concentration E. coli (D21) [3] [µM] | Minimal Inhibitory Concentration B. megaterium (Bm11) [4] [µM] | Minimal Inhibitory Concentration M. luteus (ATCC 9341) [5] [µM] | Minimal Inhibitory Concentration P. aeruginosa (ATCC 27853) [6] [µM] | hemolytic activity in comparison to melittin (fold less) ([2]; hRBC dose response) [fold] | % hemolysis at 100 μM [2] [%] | Minimal Inhibitory Concentration B. subtilis (ATCC 6051) [7] [µM] | Minimal Inhibitory Concentration P. aeruginosa (ATCC-27853) 0% Serum ([6]; 0% Serum) [µM] | Minimal Inhibitory Concentration P. aeruginosa (ATCC-27853) 33% Serum ([6]; 33% pooled human serum) [µM] | Minimal Inhibitory Concentration E. coli (D21) 0% Serum ([3]; 0% Serum) [µM] | Minimal Inhibitory Concentration E. coli (D21) 33% Serum ([3]; 33% pooled human serum) [µM]
CC[C@H](C)[C@H](NC(=O)[C@H](CCCCN)NC(=O)[C@H]1CCCN1C(=O)[C@@H](NC(=O)[C@H](CC(C)C)NC(=O)[C@H](C)NC(=O)[C@H](Cc1ccccc1)NC(=O)[C@H](Cc1ccccc1)NC(=O)CN)[C@@H](C)CC)C(=O)N[C@H](C(=O)N[C@@H](CO)C(=O)N[C@@H](CO)C(=O)N1CCC[C@H]1C(=O)N[C@@H](CC(C)C)C(=O)N[C@@H](Cc1ccccc1)C(=O)N[C@@H](CCCCN)C(=O)N[C@H](C(=O)N[C@H](CC(C)C)C(=O)N[C@H](CC(C)C)C(=O)N[C@@H](CO)C(=O)N[C@@H](C)C(=O)N[C@H](C(=O)NCCN)C(C)C)[C@@H](C)O)[C@@H](C)CC [Peptide 2, [D]P^7L^18L^19[1-22]-TApar] | 12.5 | 0 | 12.5 | 2.5 | – | – | – | – | – | – | – | – | –
CC[C@H](C)[C@H](NC(=O)[C@H](CCCCN)NC(=O)[C@H]1CCCN1C(=O)[C@@H](NC(=O)[C@H](CC(C)C)NC(=O)[C@H](C)NC(=O)[C@H](Cc1ccccc1)NC(=O)[C@H](Cc1ccccc1)NC(=O)CNC(=O)[C@@H](N)CCCCN)[C@@H](C)CC)C(=O)N[C@H](C(=O)N[C@@H](CO)C(=O)N[C@@H](CO)C(=O)N1CCC[C@H]1C(=O)N[C@@H](CC(C)C)C(=O)N[C@@H](Cc1ccccc1)C(=O)N[C@@H](CCCCN)C(=O)N[C@H](C(=O)N[C@H](CC(C)C)C(=O)N[C@H](CC(C)C)C(=O)N[C@@H](CO)C(=O)N[C@@H](C)C(=O)N[C@H](C(=O)NCCN)C(C)C)[C@@H](C)O)[C@@H](C)CC [Peptide 4, K^1[D]P^7L^18L^19[1-22]-TApar] | 7.5 | 0 | 7.5 | 1.5 | – | – | – | – | – | – | – | – | –
CC[C@H](C)[C@H](NC(=O)[C@H](CCCCN)NC(=O)[C@H]1CCCN1C(=O)[C@@H](NC(=O)[C@H](CC(C)C)NC(=O)[C@H](C)NC(=O)[C@H](Cc1ccccc1)NC(=O)[C@H](Cc1ccccc1)NC(=O)CNC(=O)[C@H](CCCCN)NC(=O)[C@@H](N)CCCCN)[C@@H](C)CC)C(=O)N[C@H](C(=O)N[C@@H](CO)C(=O)N[C@@H](CO)C(=O)N1CCC[C@H]1C(=O)N[C@@H](CC(C)C)C(=O)N[C@@H](Cc1ccccc1)C(=O)N[C@@H](CCCCN)C(=O)N[C@H](C(=O)N[C@H](CC(C)C)C(=O)N[C@H](CC(C)C)C(=O)N[C@@H](CO)C(=O)N[C@@H](C)C(=O)N[C@H](C(=O)NCCN)C(C)C)[C@@H](C)O)[C@@H](C)CC [Peptide 5, K^1K^2[D]P^7L^18L^19[1-22]-TApar] | 3.5 | 0 | 3.5 | 0.75 | – | – | – | – | – | – | – | – | –
CC[C@@H](C)[C@@H](NC(=O)[C@H](CC(C)C)NC(=O)[C@H](C)NC(=O)[C@@H]1CCCN1C(=O)[C@H](CC(C)C)NC(=O)CNC(=O)[C@@H](NC(=O)[C@@H](NC(=O)[C@H](CC(C)C)NC(=O)[C@H](NC(=O)[C@H](CCCCN)NC(=O)[C@H](CC(C)C)NC(=O)[C@H](NC(=O)[C@H](C)N)C(C)C)C(C)C)[C@@H](C)O)[C@@H](C)O)C(=O)N[C@@H](CO)C(=O)N[C@@H](Cc1c[nH]c2ccccc12)C(=O)N[C@H](C(=O)N[C@H](CCCCN)C(=O)N[C@@H](CCCNC(=N)N)C(=O)NCCN)[C@@H](C)CC [Peptide 21, [D]-V^5V^8I^17K^21-[4-22]-TAmel] | 14 | 0 | 21 | 1.2 | 28 | – | – | – | – | – | – | – | –
CC(C)C[C@H](NC(=O)[C@H](CC(C)C)NC(=O)[C@@H](CC(C)C)NC(=O)[C@@H](CC(C)C)NC(=O)[C@H](CC(C)C)NC(=O)[C@@H](N)CCCCN)C(=O)N[C@@H](CCCCN)C(=O)N[C@H](CC(C)C)C(=O)N[C@@H](CC(C)C)C(=O)N[C@H](CC(C)C)C(=O)N[C@@H](CC(C)C)C(=O)N[C@@H](CCCCN)C(N)=O [Peptide 22, [D]-L^3,4,8,10-K3L9] (H-KL[dL][dL]LLK[dL]L[dL]LK-NH2) | 20 | – | 9 | 0.7 | – | 125 | > 60 | 58 | 1.1 | – | – | – | –
CC(C)C[C@H](NC(=O)[C@H](CCCCN)NC(=O)[C@@H](CC(C)C)NC(=O)[C@@H](CC(C)C)NC(=O)[C@H](CC(C)C)NC(=O)[C@@H](N)CCCCN)C(=O)N[C@@H](CCCCN)C(=O)N[C@H](CC(C)C)C(=O)N[C@@H](CCCCN)C(=O)N[C@H](CC(C)C)C(=O)N[C@@H](CC(C)C)C(=O)N[C@@H](CCCCN)C(N)=O [Peptide 24, [D]-L^3,4,8,10-K5L7] (H-KL[dL][dL]KLK[dL]K[dL]LK-NH2) | 20 | – | 7 | 0.25 | – | 10 | – | 0 | 2 | 10 | 10 | 7 | 7
CC(C)C[C@H](NC(=O)[C@H](CCCCN)NC(=O)[C@@H](CC(C)C)NC(=O)[C@@H](CC(C)C)NC(=O)[C@H](CCCCN)NC(=O)[C@@H](N)CCCCN)C(=O)N[C@@H](CCCCN)C(=O)N[C@H](CC(C)C)C(=O)N[C@@H](CCCCN)C(=O)N[C@H](CC(C)C)C(=O)N[C@@H](CCCCN)C(=O)N[C@@H](CCCCN)C(N)=O [Peptide 25, [D]-L^3,4,8,10-K7L5] (H-KK[dL][dL]KLK[dL]K[dL]KK-NH2; N-terminus assumed) | 200 | – | 80 | 1 | – | >200 | – | 0 | 100 | – | – | – | –
CC[C@H](C)[C@@H]1NC(=O)[C@H](CCCCN)NC(=O)[C@H]2CCCN2C(=O)[C@H]([C@@H](C)CC)NC(=O)[C@H](CC(C)C)NC(=O)[C@H](C)NC(=O)[C@H](Cc2ccccc2)NC(=O)[C@H](Cc2ccccc2)NC(=O)CNC(=O)[C@H](CCCCN)NC(=O)[C@H](CCCCN)NC(=O)[C@H](CCCCN)NC(=O)[C@@H](N)CSSC[C@@H](C(=O)O)NC(=O)[C@H](C(C)C)NC(=O)[C@H](C)NC(=O)[C@H](CO)NC(=O)[C@@H](CC(C)C)NC(=O)[C@@H](CC(C)C)NC(=O)[C@H]([C@@H](C)O)NC(=O)[C@H](CCCCN)NC(=O)[C@H](Cc2ccccc2)NC(=O)[C@H](CC(C)C)NC(=O)[C@@H]2CCCN2C(=O)[C@H](CO)NC(=O)[C@H](CO)NC(=O)[C@H]([C@@H](C)CC)NC1=O [Peptide 88, Cyclic K^1K^2K^3[D]P^7L^18L^19[1-22]-par] | – | – | 7.5 | 2 | – | – | – | 0 | – | – | – | – | –
